In US11708366B2, “Heteroaryl substituted spiropiperidinyl derivatives and pharmaceutical uses thereof” (Novartis AG, priority 2020, dated 2023):

The compounds below were run against T1, LTC4S (Homo sapiens (Human), UniProt Q16873) (assay: Human LTC4S enzymatic assay (HTRF detection of LTC4-Me)). Conditions: not given.
Assay type: biochemical
Experimental: A. Human LTC4S Enzymatic Assay:
LTC4 synthase catalyzes the conversion of Leukotriene A4 (LTA4) to Leukotriene C4 (LTC4) in the presence of reduced glutathione (GSH) as a co-substrate. For compound testing, compounds are delivered as 10 mM stock solutions in 90% DMSO in matrix tubes. From this, a 1:3 dilution dose response series is prepared with a starting concentration of 30 μM to 0.1 nM. For the enzymatic assay 97.5 nL of compound/DMSO solution is transferred to each well and 5 μL enzyme solution (assay buffer: 50 mM bis-tris propane pH 7.3, 250 mM NaCl, 10 mM MgCl2, 0.001% MGN3) is added to the wells. […] The enzyme compound mixture is incubated at room temperature for 15 minutes prior to the addition of 5 μL substrate solution. […] A final substrate concentration of 400 μM GSH and 5 μM LTA4-Me is chosen.
The LTA4-Me is obtained commercially in 2% triethylamine/hexane solvent. As this solvent is incompatible with the HTRF assay it has to be exchanged with DMSO according to following procedure: add 50 μL of 100% DMSO to 50 μL LTA4-Me (3 mM) in a 2 mL Eppendorf tube and mix gently by inverting the tube. The triethylamine/hexane is evaporated under a constant argon flux at room temperature. The DMSO-LTA4-Me (3 mM) is aliquoted and stored at −20° C. for not longer than 4 weeks, as it is not stable in DMSO due to its oxidizing properties.
Upon addition of the substrate, the plate is immediately placed on a shaker for 5 min at room temperature. Immediately after the 5 min incubation 5 μL of H2O2 solution is added to all wells to stop the reaction. The plate contents are mixed before the addition of detection reagents. […] For the detection of the product of the enzymatic reaction LTC4-Me, the Cisbio LTC4-HTRF kit is used as the assay is compatible with the detection of LTC4-Me. 5 μL of diluted LTC4-d2 conjugate (according to manufacturer's protocol) are added to all wells of the assay plate and the contents gently mixed and incubated for 5 minutes at room temperature. […] The percent inhibition for each point of an inhibition curve is calculated after data interpolation using the LTC4-Me standard curve, to convert the HTRF signal to the amount of LTC4-Me produced within the LTC4S catalyzed reaction on each plate. The data is analyzed using parametric curve fitting to determine IC50 values of LTC4S inhibitors.
`O=C1CCCC2(CCN(c3nccc(N4CC5(CC5)C4)n3)CC2)N1c1ccc(Cl)c(F)c1` [Example 35b, 9-(4-(5-azaspiro[2.3]hexan-5-yl)pyrimidin-2-yl)-1-(4-chloro-3-fluorophenyl)-1,9-diazaspiro[5.5]undecan-2-one] gave an IC50 of 3 nM.

Same assay, conditions: 0.75 nM enzyme, 400 μM GSH, 5 μM LTA4-Me, 15 min pre-incubation; read-out: human LTC4S IC50 (enzymatic assay)
Work on `O=C1CCCC2(CCN(c3nnc(-c4ccccc4)o3)CC2)N1c1ccc(Cl)c(F)c1` [Example 28, 1-(4-chloro-3-fluorophenyl)-9-(5-phenyl-1,3,4-oxadiazol-2-yl)-1,9-diazaspiro[5.5]undecan-2-one] yielded an IC50 of 110 nM. For `O=C1CCCC2(CCN(c3ncnc(N4CCCC4)n3)CC2)N1c1ccc(Cl)c(F)c1` [Example 38, 1-(4-chloro-3-fluorophenyl)-9-(4-(pyrrolidin-1-yl)-1,3,5-triazin-2-yl)-1,9-diazaspiro[5.5]undecan-2-one], the IC50 was 8 nM. `O=C1CCCC2(CCN(c3nnn(-c4ccccc4)n3)CC2)N1c1ccc(Cl)c(F)c1` [Example 22, 1-(4-chloro-3-fluorophenyl)-9-(2-phenyl-2H-tetrazol-5-yl)-1,9-diazaspiro[5.5]undecan-2-one] gave an IC50 of 11 nM. `O=C1CCCC2(CCN(c3ncc(C4CCCCC4)o3)CC2)N1c1ccc(Cl)c(F)c1` [Example 27, 1-(4-chloro-3-fluorophenyl)-9-(5-cyclohexyloxazol-2-yl)-1,9-diazaspiro[5.5]undecan-2-one] gave an IC50 of 25 nM. Work on `O=C1CCCC2(CCN(c3noc([C@H]4C[C@@H]4C(F)(F)F)n3)CC2)N1c1ccc(Cl)c(F)c1` [Example 6b, 1-(4-chloro-3-fluorophenyl)-9-(5-((1S,2S)-2-(trifluoromethyl)cyclopropyl)-1,2,4-oxadiazol-3-yl)-1,9-diazaspiro[5.5]undecan-2-one, or 1-(4-chloro-3-fluorophenyl)-9-(5-((1R,2R)-2-(trifluoromethyl)cyclopropyl)-1,2,4-oxadiazol-3-yl)-1,9-diazaspiro[5.5]undecan-2-one] yielded an IC50 of 44 nM. `O=C1CCCC2(CCN(c3cc(N4CC(F)(F)C(F)(F)C4)ncn3)CC2)N1c1ccc(Cl)c(F)c1` [Example 44, 1-(4-chloro-3-fluorophenyl)-9-(6-(3,3,4,4-tetrafluoropyrrolidin-1-yl)pyrimidin-4-yl)-1,9-diazaspiro[5.5]undecan-2-one] gave an IC50 of 13 nM. `O=C1CCCC2(CCN(c3nc(N4CCCC4)nnc3O)CC2)N1c1ccc(Cl)c(F)c1` [Example 8, 1-(4-chloro-3-fluorophenyl)-9-(6-hydroxy-3-(pyrrolidin-1-yl)-1,2,4-triazin-5-yl)-1,9-diazaspiro[5.5]undecan-2-one] was tested, and the IC50 was 7 nM. Compound `O=C1CCCC2(CCN(c3nc4ccc(C(F)(F)F)cc4o3)CC2)N1c1ccc(Cl)c(F)c1` [Example 2, 1-(4-chloro-3-fluorophenyl)-9-(6-(trifluoromethyl)benzo[d]oxazol-2-yl)-1,9-diazaspiro[5.5]undecan-2-one] has an IC50 of 36 nM.

The compounds below were run against T1, LTC4S (assay: Human whole blood HTRF assay (LTC4 release after calcium ionophore A23187)). Conditions: human whole blood HTRF IC50, human whole blood diluted 1:3, 4 h incubation, calcium ionophore A23187 stimulation, LTC4 by HTRF.
Assay type: cell-based
Work on `O=C1CCCC2(CCN(c3cc(OC4CCOCC4)n[nH]c3=O)CC2)N1c1ccc(F)c(F)c1` [Example 16, 1-(3,4-difluorophenyl)-9-(3-oxo-6-((tetrahydro-2H-pyran-4-yl)oxy)-2,3-dihydropyridazin-4-yl)-1,9-diazaspiro[5.5]undecan-2-one] yielded an IC50 of 16 nM. `Cn1nc(-n2cc(C(F)(F)F)cn2)cc(N2CCC3(CCCC(=O)N3c3ccc(F)c(F)c3)CC2)c1=O` [Example 14, 1-(3,4-difluorophenyl)-9-(2-methyl-3-oxo-6-(4-(trifluoromethyl)-1H-pyrazol-1-yl)-2,3-dihydropyridazin-4-yl)-1,9-diazaspiro[5.5]undecane-2-one] showed an IC50 of 1 nM.

Same assay, conditions: human whole blood diluted 1:3, 4 h incubation, calcium ionophore A23187 stimulation, LTC4 by HTRF; read-out: human whole blood HTRF IC50
`O=C1CCCC2(CCN(c3nnc(-c4ccccc4)o3)CC2)N1c1ccc(Cl)c(F)c1` [Example 28, 1-(4-chloro-3-fluorophenyl)-9-(5-phenyl-1,3,4-oxadiazol-2-yl)-1,9-diazaspiro[5.5]undecan-2-one] gave an IC50 of 450 nM. With `O=C1CCCC2(CCN(c3ncnc(N4CCCC4)n3)CC2)N1c1ccc(Cl)c(F)c1` [Example 38, 1-(4-chloro-3-fluorophenyl)-9-(4-(pyrrolidin-1-yl)-1,3,5-triazin-2-yl)-1,9-diazaspiro[5.5]undecan-2-one] the IC50 was 86 nM. `O=C1CCCC2(CCN(c3nnn(-c4ccccc4)n3)CC2)N1c1ccc(Cl)c(F)c1` [Example 22, 1-(4-chloro-3-fluorophenyl)-9-(2-phenyl-2H-tetrazol-5-yl)-1,9-diazaspiro[5.5]undecan-2-one] was tested, and the IC50 was 530 nM. Work on `O=C1CCCC2(CCN(c3ncc(C4CCCCC4)o3)CC2)N1c1ccc(Cl)c(F)c1` [Example 27, 1-(4-chloro-3-fluorophenyl)-9-(5-cyclohexyloxazol-2-yl)-1,9-diazaspiro[5.5]undecan-2-one] yielded an IC50 of 59 nM. `Nc1nc(N2CCC3(CCCC(=O)N3c3ccc(F)c(F)c3)CC2)nc(-n2cc(F)cn2)n1` [Example 60, 9-(4-amino-6-(4-fluoro-1H-pyrazol-1-yl)-1,3,5-triazin-2-yl)-1-(3,4-difllorophenyl)-1,9-diazaspiro[5.5]undecan-2-one] showed an IC50 of 680 nM. With `O=C1CCCC2(CCN(c3cc(-n4cc(C(F)(F)F)cn4)n[nH]c3=O)CC2)N1c1ccc(F)c(F)c1` [Example 12, 1-(3,4-difluorophenyl)-9-(3-oxo-6-(4-(trifluoromethyl)-1H-pyrazol-1-yl)-2,3-dihydropyridazin-4-yl)-1,9-diazaspiro [5.5] undecane-2-one] the IC50 was 2 nM. In the case of `Nc1cc(N2CCC3(CCCC(=O)N3c3ccc(F)c(F)c3)CC2)nc(-c2ccccn2)n1` [Example 63, 9-(6-amino-2-(pyridin-2-yl)pyrimidin-4-yl)-1-(3,4-difluorophenyl)-1,9-diazaspiro[5.5]undecan-2-one], the IC50 is reported as 430 nM. `O=C1CCCC2(CCN(c3cc(O[C@@H]4CCOC4)nc(Cl)n3)CC2)N1c1ccc(F)c(F)c1` [Example 70, (R)-9-(2-chloro-6-((tetrahydrofuran-3-yl)oxy)pyrimidin-4-yl)-1-(3,4-difluorophenyl)-1,9-diazaspiro[5.5]undecan-2-one] showed an IC50 of 110 nM. With `O=C1CCCC2(CCN(c3cc(OC4CCOCC4)ncn3)CC2)N1c1ccc(F)c(F)c1` [Example 87, 1-(3,4-difluorophenyl)-9-(6-((tetrahydro-2H-pyran-4-yl)oxy)pyrimidin-4-yl)-1,9-diazaspiro[5.5]undecan-2-one] the IC50 was 7 nM. Compound `CCCOc1ccnc(N2CCC3(CCCC(=O)N3c3ccc(F)c(F)c3)CC2)n1` [Example 85, 1-(3,4-difluorophenyl)-9-(4-propoxypyrimidin-2-yl)-1,9-diazaspiro[5.5]undecan-2-one] has an IC50 of 430 nM. Work on `Nc1nc(OCC(F)(F)F)cc(N2CCC3(CCCC(=O)N3c3ccc(F)c(F)c3)CC2)n1` [Example 91, 9-(2-amino-6-(2,2,2-trifluoroethoxy)pyrimidin-4-yl)-1-(3,4-difluorophenyl)-1,9-diazaspiro[5.5]undecan-2-one] yielded an IC50 of 3 nM. In the case of `CC(C)Oc1cc(N2CCC3(CCCC(=O)N3c3ccc(F)c(F)c3)CC2)nc(N)n1` [Example 93, 9-(2-amino-6-isopropoxypyrirnidin-4-yl)-1-(3,4-difluorophenyl)-1,9-diazaspiro[5.5]undecan-2-one], the IC50 is reported as 10 nM. `Nc1nc(N2CCC3(CC2)CC(F)CC(=O)N3c2ccc(F)c(F)c2)cc(C(F)(F)C(F)(F)F)n1` (racemic) [Example 117, rac-9-(2-amino-6-(perfluoroethyl)pyrimidin-4-yl)-1-(3,4-difluorophenyl)-4-fluoro-1,9-diazaspiro[5.5]undecan-2-one] showed an IC50 of 18 nM. `O=C1CCCC2(CCN(c3cc(-c4ncco4)ncn3)CC2)N1c1ccc(F)c(F)c1` [Example 62, 1-(3,4-difluorophenyl)-9-(6-(oxazol-2-yl)pyrimidin-4-yl)-1,9-diazaspiro[5.5]undecan-2-one] showed an IC50 of 410 nM. In the case of `O=C1CCCC2(CCN(c3cc(-n4cc(C(F)(F)F)cn4)nc(CO)n3)CC2)N1c1ccc(F)c(F)c1` [Example 66, 1-(3,4-difluorophenyl)-9-(2-(hydroxymethyl)-6-(4-(trifluoromethyl)-1H-pyrazol-1-yl)pyrimidin-4-yl)1,9-diazaspiro[5.5]undecane-2-one], the IC50 is reported as 1 nM. Compound `O=C1CCCC2(CCN(c3cc(O[C@H]4CCOC4)nc(CO)n3)CC2)N1c1ccc(F)c(F)c1` [Example 109, (S)-1-(3,4-difluorophenyl)-9-(2-(hydroxymethyl)-6-((tetrahydrofuran-3-yl)oxy)pyrimidin-4-yl)-1,9-diazaspiro[5.5]undecan-2-one] has an IC50 of 15 nM. Compound `[2H]C1(Oc2cc(N3CCC4(CCCC(=O)N4c4ccc(F)c(F)c4)CC3)nc(N)n2)CCOCC1` [Example 103, 9-(2-amino-6-((tetrahydro-2H-pyran-4-yl-4-d)oxy)pyrimidin-4-yl)-1-(3,4-difluorophenyl)-1,9-diazaspiro[5.5]undecan-2-one] has an IC50 of 8 nM. `Nc1nc(OCC(F)(F)C(F)(F)F)cc(N2CCC3(CCCC(=O)N3c3ccc(F)c(F)c3)CC2)n1` [Example 97] gave an IC50 of 3 nM. Work on `Nc1nc(-c2ccc(F)cc2)cc(N2CCC3(CCCC(=O)N3c3ccc(F)c(F)c3)CC2)n1` [Example 75] yielded an IC50 of 4 nM. In the case of `O=C1CCCC2(CCN(c3cc(N4CC5(CCC5)C4)nn(Cc4ccccc4)c3=O)CC2)N1c1ccc(F)c(F)c1` [Example 10, 9-(2-benzyl-3-oxo-6-(2-azaspiro[3.3]heptan-2-yl)-2,3-dihydropyridazin-4-yl)-1-(3,4-difluorophenyl)-1,9-diazaspiro[5.5]undecan-2-one], the IC50 is reported as 5 nM.
